# Test results reported in PubChem BioAssay (NCI).
#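 Exposure lasted 48 hours, with cells grown in 96-well plates and compounds tested at five concentrations. GI50: concentration for 50% inhibition of growth. TGI: total growth inhibition.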
# Tests used:
# Assay in all cases: NCI-60 cell line screen, 48 h
# A498 renal = test system: A498 renal
# ACHN renal = test system: ACHN renal
# CAKI-1 renal = test system: CAKI-1 renal
# COLO 205 colon = test system: COLO 205 colon
# DU-145 prostate = test system: DU-145 prostate
# HL-60(TB) leukemia = test system: HL-60(TB) leukemia
# HS 578T breast = test system: HS 578T breast
# KM12 colon = test system: KM12 colon
# MCF7 breast = test system: MCF7 breast
# MDA-MB-231 breast = test system: MDA-MB-231 breast
# MDA-MB-435 = test system: MDA-MB-435
# NCI-H226 lung = test system: NCI-H226 lung
# NCI/ADR-RES ovarian = test system: NCI/ADR-RES ovarian
# OVCAR-4 ovarian = test system: OVCAR-4 ovarian
# OVCAR-5 ovarian = test system: OVCAR-5 ovarian
# SF-539 CNS = test system: SF-539 CNS
# SK-MEL-2 melanoma = test system: SK-MEL-2 melanoma
# SK-MEL-28 melanoma = test system: SK-MEL-28 melanoma
# SK-OV-3 ovarian = test system: SK-OV-3 ovarian
# SN12C renal = test system: SN12C renal
# SNB-75 CNS = test system: SNB-75 CNS
# T-47D breast = test system: T-47D breast
# TK-10 renal = test system: TK-10 renal
# UACC-257 melanoma = test system: UACC-257 melanoma
# UACC-62 melanoma = test system: UACC-62 melanoma
smiles,measurement,setting,value
Cc1ccc(NC(=O)c2ccc(CN3CCN(C)CC3)c(I)c2)cc1Oc1ccc(-c2[nH]nc3ncnc(N)c23)cc1,GI50,A498 renal,18.8 µM
same,TGI,A498 renal,38.3 µM
same,GI50,ACHN renal,1.8 µM
same,TGI,ACHN renal,3.33 µM
same,GI50,CAKI-1 renal,12 µM
same,TGI,CAKI-1 renal,28.1 µM
same,GI50,COLO 205 colon,1.73 µM
same,TGI,COLO 205 colon,5.08 µM
same,GI50,DU-145 prostate,1.88 µM
same,TGI,DU-145 prostate,3.45 µM
same,GI50,HL-60(TB) leukemia,4.42 µM
same,TGI,HL-60(TB) leukemia,> 100 µM
same,GI50,HS 578T breast,1.77 µM
same,TGI,HS 578T breast,5.09 µM
same,GI50,KM12 colon,1.79 µM
same,TGI,KM12 colon,3.59 µM
same,GI50,MCF7 breast,1.35 µM
same,TGI,MCF7 breast,2.94 µM
same,GI50,MDA-MB-231 breast,1.85 µM
same,TGI,MDA-MB-231 breast,3.47 µM
same,GI50,MDA-MB-435,1.58 µM
same,TGI,MDA-MB-435,3.01 µM
same,GI50,NCI-H226 lung,23.2 µM
same,TGI,NCI-H226 lung,84.9 µM
same,GI50,NCI/ADR-RES ovarian,3.93 µM
same,TGI,NCI/ADR-RES ovarian,40.7 µM
same,GI50,OVCAR-4 ovarian,18 µM
same,TGI,OVCAR-4 ovarian,40.7 µM
same,GI50,OVCAR-5 ovarian,1.94 µM
same,TGI,OVCAR-5 ovarian,3.52 µM
same,GI50,SF-539 CNS,1.26 µM
same,TGI,SF-539 CNS,2.68 µM
same,GI50,SK-MEL-2 melanoma,24.7 µM
same,TGI,SK-MEL-2 melanoma,80.1 µM
same,GI50,SK-MEL-28 melanoma,1.63 µM
same,TGI,SK-MEL-28 melanoma,3.12 µM
same,GI50,SK-OV-3 ovarian,26.2 µM
same,TGI,SK-OV-3 ovarian,63.9 µM
same,GI50,SN12C renal,12.1 µM
same,TGI,SN12C renal,33.8 µM
same,GI50,SNB-75 CNS,0.458 µM
same,TGI,SNB-75 CNS,20.8 µM
same,GI50,T-47D breast,2.72 µM
same,TGI,T-47D breast,> 100 µM
same,GI50,TK-10 renal,5.33 µM
same,TGI,TK-10 renal,28 µM
same,GI50,UACC-257 melanoma,2.03 µM
same,TGI,UACC-257 melanoma,4.59 µM
same,GI50,UACC-62 melanoma,1.73 µM
same,TGI,UACC-62 melanoma,3.35 µM
